Test results reported in publication PMC7714403 (JCI Insight, 2020).

What was measured:
FLT3 ITD/D835V = FLT3 ITD/D835V (Homo sapiens, UniProt P36888, D835V/ITD); assay: KdELECT binding assay
AKT1 = AKT1 (Homo sapiens, UniProt P31749); assay: KiNativ, OCI cells live cell; format: cell-based; settings: 2 h, labeling site ATP Loop, peptide […]
AMPKa1, AMPKa2 = assay: KiNativ, OCI cells live cell; format: cell-based, human
CCRK = CCRK (Homo sapiens, UniProt Q8IZL9); assay: KiNativ, OCI cells live cell; format: cell-based; settings: 2 h, labeling site Lys2, peptide […]
IRE1 = IRE1 (Homo sapiens, UniProt O75460); assay: KiNativ, OCI cells live cell; format: cell-based; settings: 2 h, labeling site Lys2, peptide […]
LATS1 = molecular target: T1, LATS1 (Homo sapiens, UniProt O95835); assay: KiNativ, OCI cells live cell; format: cell-based; settings: 2 h
T1 sequence (O95835 1-1130): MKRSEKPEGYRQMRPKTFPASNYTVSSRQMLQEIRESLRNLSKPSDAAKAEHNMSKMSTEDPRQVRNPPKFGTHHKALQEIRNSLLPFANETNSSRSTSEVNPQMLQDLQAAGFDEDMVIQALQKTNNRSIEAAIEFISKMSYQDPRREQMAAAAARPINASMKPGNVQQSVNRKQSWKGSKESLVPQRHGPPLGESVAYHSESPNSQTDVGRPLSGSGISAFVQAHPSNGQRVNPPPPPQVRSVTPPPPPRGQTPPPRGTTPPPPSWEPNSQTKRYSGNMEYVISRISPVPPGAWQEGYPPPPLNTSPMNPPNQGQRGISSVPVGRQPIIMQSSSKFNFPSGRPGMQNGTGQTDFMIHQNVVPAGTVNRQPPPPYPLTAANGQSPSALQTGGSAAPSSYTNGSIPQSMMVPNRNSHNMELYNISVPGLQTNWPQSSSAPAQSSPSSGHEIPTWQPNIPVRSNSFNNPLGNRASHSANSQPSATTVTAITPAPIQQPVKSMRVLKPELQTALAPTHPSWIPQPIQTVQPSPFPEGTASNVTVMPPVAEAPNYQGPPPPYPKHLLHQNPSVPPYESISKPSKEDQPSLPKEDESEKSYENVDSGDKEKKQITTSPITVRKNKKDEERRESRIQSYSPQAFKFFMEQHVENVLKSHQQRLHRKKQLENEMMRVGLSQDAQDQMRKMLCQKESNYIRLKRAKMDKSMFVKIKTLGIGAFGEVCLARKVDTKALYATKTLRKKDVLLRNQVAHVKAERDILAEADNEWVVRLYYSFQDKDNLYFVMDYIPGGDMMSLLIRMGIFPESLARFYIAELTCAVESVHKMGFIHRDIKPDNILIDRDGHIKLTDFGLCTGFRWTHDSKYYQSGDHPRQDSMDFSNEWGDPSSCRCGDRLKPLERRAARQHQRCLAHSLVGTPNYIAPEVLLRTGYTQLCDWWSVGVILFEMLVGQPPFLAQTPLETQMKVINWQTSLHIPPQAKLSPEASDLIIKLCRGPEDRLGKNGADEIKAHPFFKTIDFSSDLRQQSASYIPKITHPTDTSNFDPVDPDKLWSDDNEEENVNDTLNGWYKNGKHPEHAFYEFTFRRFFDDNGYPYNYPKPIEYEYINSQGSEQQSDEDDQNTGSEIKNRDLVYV

LATS2 = molecular target: T2, LATS2 (Homo sapiens, UniProt Q9NRM7); assay: KiNativ, OCI cells live cell; format: cell-based
T2 sequence (Q9NRM7 1-1088): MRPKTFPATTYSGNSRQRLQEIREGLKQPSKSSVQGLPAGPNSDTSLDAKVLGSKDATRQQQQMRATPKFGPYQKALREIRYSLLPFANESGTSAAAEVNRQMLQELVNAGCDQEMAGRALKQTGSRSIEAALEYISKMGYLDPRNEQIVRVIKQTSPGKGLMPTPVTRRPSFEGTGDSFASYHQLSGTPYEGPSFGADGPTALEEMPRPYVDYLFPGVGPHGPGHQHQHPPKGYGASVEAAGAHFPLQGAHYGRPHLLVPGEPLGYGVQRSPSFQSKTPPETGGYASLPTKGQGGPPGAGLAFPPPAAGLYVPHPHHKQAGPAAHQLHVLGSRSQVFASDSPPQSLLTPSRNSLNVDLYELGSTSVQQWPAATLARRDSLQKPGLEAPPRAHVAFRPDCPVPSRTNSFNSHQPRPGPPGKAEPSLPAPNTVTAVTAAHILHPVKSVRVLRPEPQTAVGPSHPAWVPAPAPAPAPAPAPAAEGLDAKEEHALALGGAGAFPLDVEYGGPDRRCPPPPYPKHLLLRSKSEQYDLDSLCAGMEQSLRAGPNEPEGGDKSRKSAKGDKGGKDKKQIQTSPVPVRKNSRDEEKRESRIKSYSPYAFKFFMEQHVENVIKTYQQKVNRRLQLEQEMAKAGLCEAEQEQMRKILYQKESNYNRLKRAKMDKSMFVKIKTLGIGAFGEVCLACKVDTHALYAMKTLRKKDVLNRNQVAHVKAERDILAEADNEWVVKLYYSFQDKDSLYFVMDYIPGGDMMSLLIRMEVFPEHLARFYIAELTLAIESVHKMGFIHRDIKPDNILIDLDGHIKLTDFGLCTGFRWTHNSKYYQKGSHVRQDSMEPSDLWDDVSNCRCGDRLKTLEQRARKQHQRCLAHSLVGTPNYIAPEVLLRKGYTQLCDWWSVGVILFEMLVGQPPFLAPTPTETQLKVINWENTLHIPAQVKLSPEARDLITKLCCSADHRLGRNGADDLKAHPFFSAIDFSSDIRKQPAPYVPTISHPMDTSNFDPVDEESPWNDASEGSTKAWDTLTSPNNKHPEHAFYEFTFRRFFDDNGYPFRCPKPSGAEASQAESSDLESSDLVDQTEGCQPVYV

LKB1 = LKB1 (Homo sapiens, UniProt Q15831); assay: KiNativ, OCI cells live cell; format: cell-based; settings: 2 h, labeling site Lys2, peptide […]
NEK1 = NEK1 (Homo sapiens, UniProt Q96PY6); assay: KiNativ, OCI cells live cell; format: cell-based; settings: 2 h, labeling site Lys2, peptide […]
p38b = p38b (Homo sapiens, UniProt Q15759); assay: KiNativ, OCI cells live cell; format: cell-based; settings: 2 h, labeling site Other, peptide […]
PFTAIRE2 = PFTAIRE2 (Homo sapiens, UniProt Q96Q40); assay: KiNativ, OCI cells live cell; format: cell-based; settings: 2 h, labeling site Lys2, peptide […]
Wnk1, Wnk2 = assay: KiNativ, OCI cells live cell; format: cell-based, human; settings: labeling site ATP Loop, peptide GSFKTVYK

Chain of CCRK (Q8IZL9 whole entry): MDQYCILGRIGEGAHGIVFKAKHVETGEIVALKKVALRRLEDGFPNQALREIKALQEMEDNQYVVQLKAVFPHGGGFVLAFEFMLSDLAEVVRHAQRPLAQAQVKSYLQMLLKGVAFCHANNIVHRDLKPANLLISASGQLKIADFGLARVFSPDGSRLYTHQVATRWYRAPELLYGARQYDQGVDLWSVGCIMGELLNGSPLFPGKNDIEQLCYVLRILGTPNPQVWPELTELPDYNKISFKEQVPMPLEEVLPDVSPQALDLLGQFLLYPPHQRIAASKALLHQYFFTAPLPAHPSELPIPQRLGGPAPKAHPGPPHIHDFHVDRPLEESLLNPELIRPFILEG
Chain of LKB1 (Q15831 1-430 limits assumed): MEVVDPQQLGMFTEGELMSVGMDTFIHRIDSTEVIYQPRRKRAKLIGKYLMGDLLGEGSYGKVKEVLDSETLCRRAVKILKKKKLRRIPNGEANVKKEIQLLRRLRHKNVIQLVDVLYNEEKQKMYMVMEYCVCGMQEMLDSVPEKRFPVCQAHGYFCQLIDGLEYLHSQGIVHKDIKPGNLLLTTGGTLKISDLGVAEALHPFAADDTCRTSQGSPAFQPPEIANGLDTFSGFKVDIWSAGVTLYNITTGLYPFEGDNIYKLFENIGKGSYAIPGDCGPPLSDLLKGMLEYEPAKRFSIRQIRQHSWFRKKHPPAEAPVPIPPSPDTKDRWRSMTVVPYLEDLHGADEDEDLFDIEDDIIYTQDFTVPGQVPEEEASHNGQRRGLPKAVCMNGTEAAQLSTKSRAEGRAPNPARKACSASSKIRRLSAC
Chain of LKB1 (Q7RTN6 whole entry partner): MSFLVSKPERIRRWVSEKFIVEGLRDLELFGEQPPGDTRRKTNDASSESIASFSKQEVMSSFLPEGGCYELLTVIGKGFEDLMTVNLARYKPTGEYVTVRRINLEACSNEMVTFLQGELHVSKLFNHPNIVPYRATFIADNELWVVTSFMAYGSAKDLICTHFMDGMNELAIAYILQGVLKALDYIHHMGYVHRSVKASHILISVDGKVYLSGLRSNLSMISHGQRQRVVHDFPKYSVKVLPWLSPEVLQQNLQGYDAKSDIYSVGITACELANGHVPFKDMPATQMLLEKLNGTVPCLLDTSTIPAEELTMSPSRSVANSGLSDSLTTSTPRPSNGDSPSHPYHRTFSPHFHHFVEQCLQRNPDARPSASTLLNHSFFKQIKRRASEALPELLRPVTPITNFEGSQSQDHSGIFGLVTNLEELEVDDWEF
Chain of LKB1 (Q9Y376 whole entry partner): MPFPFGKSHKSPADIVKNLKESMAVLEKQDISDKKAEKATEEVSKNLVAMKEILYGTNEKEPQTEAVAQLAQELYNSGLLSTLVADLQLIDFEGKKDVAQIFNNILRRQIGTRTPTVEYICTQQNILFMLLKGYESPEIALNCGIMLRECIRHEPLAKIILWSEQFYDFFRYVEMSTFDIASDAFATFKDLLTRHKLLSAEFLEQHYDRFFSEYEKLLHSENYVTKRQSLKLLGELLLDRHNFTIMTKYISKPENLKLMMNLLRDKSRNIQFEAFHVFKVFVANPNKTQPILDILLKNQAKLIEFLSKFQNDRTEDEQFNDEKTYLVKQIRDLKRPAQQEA
Chain of IRE1 (O75460 19-977): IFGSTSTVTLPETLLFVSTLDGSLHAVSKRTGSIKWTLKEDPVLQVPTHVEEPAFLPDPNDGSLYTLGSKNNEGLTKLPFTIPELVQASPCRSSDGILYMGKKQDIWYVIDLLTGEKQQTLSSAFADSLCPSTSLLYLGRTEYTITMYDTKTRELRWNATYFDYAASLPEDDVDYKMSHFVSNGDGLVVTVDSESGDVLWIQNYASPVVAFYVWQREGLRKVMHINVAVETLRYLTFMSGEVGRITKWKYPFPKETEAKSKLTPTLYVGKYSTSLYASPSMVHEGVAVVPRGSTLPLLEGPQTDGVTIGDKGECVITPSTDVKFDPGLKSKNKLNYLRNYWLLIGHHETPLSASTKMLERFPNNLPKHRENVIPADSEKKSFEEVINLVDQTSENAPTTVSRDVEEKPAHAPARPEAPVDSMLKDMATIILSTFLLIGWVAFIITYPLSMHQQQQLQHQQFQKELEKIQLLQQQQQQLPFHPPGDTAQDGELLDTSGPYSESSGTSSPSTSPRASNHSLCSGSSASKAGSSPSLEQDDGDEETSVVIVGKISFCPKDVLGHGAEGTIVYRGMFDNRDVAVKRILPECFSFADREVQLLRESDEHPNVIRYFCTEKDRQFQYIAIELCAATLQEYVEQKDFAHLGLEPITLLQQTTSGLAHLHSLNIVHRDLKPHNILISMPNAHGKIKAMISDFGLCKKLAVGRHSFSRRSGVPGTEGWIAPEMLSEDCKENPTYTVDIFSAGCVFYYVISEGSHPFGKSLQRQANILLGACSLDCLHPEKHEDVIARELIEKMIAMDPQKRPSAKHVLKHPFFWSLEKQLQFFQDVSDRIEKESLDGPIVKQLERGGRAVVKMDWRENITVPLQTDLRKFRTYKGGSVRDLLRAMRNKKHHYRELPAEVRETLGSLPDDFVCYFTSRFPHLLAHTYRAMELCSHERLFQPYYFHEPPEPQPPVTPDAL
Chain of PFTAIRE2 (Q96Q40 whole entry): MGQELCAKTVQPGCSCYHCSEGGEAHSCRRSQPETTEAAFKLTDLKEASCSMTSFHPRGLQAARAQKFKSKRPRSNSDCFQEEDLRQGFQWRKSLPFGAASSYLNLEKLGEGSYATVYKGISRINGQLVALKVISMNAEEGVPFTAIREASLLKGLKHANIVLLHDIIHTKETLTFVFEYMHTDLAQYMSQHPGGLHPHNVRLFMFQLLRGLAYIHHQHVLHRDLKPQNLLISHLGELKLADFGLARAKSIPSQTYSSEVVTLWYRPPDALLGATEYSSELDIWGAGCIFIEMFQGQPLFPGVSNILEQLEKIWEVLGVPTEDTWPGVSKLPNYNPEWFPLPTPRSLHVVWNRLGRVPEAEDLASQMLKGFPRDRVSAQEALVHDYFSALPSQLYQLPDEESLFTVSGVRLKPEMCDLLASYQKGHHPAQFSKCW
Chain of AKT1 (P31749 whole entry): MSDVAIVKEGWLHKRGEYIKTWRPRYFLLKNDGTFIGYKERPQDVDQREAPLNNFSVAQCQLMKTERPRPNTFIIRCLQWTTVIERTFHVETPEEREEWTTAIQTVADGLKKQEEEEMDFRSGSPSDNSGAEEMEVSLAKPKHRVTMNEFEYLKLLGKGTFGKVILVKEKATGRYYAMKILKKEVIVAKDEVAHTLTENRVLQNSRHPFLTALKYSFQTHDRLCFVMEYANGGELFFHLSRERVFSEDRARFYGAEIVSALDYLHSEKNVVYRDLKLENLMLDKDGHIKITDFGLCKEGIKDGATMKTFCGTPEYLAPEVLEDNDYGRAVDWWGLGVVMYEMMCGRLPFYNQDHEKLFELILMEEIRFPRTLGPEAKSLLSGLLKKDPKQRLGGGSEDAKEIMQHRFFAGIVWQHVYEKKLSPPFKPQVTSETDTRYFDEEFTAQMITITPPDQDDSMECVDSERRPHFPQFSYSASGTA
Chain of p38b (Q15759 whole entry): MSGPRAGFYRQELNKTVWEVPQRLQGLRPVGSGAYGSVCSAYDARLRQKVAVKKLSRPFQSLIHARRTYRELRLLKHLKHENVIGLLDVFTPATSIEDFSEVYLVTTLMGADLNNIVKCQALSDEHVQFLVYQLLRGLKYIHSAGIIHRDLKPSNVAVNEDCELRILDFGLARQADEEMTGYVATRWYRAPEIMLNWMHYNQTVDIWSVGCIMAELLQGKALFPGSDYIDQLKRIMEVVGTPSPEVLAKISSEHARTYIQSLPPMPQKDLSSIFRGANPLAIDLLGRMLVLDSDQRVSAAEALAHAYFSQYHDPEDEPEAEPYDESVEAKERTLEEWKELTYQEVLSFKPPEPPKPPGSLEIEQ

CN1CCN(Cc2ccc(Nc3ncc(Cl)c(Nc4ccccc4S(=O)(=O)N(C)C)n3)cc2)CC1 [TP-0903]
Kd (FLT3 ITD/D835V): 0.79 nM | inhibition at 0.1 µM (AKT1): -17.1% | Inhibition (AMPKa1, AMPKa2; labeling site Lys1, peptide VAVKILNR): 71.8% | Inhibition (AMPKa1, AMPKa2; labeling site Lys2, peptide DLKPENVLLDAHMNAK): 75.1% | inhibition at 0.1 µM (CCRK): 58.1% | inhibition at 0.1 µM (IRE1): 33.5% | inhibition at 0.1 µM (LATS1; labeling site Lys1, peptide ALYATKTLR): 11.6% | inhibition at 0.1 µM (LATS1; labeling site Lys2, peptide DIKPDNILIDR): 7.9% | Inhibition (LATS2; labeling site Lys1, peptide VDTHALYAMKTLR): -1.0% | Inhibition (LATS2; labeling site Lys2, peptide DIKPDNILIDLDGHIK): -30.2% | inhibition at 0.1 µM (LKB1): 25.7% | inhibition at 0.1 µM (NEK1): -4.4% | inhibition at 0.1 µM (p38b): -9.9% | inhibition at 0.1 µM (PFTAIRE2): 28.4% | Inhibition (Wnk1, Wnk2): -19.4%
